Test results: paper PMC6836573, “Mitochondria-targeting fluorescent molecules for high efficiency cancer growth inhibition and imaging” (Chemical Science, 2019)

Tests used:
[1] = tested on: NSCLC H838 cell; experiment: Cytotoxicity assay (direct cell counting), H838; assay type: cell-based; settings: Homo sapiens, NCI-H838, 72 h, H838 cells; 3 days incubation, viable cells counted
Method: (§1) Cell culture, imaging, and cytotoxicity assay
(§2) RPMI-1640 medium. NIH/3T3 was cultured in DMEM medium. A549 was cultured in F-12K medium. T24 were cultured in McCoy's 5A medium. All culture mediums were supplemented with 10% fetal bovine serum. The cells were incubated at 37 °C in an atmosphere containing 5% CO 2. […]
(§3) Cytotoxicity assay. All test cell lines were incubated in 96-well plates overnight at a density of 3000 cells/well. The culture medium was replaced with 200 μL of culture medium, into which the testing compound was dispersed at various concentrations (1.95 - 500 μM). After incubating for 3 days, the viable cell numbers were checked and directly counted under microscopy (10X). A minimum of 1mm×1mm area was counted from each of at least three widely separated regions of cell culture. The cell proliferation rate was calculated by the following formula: cell proliferation rate (%) = (average cell number of sample wells / average cell number of control wells) ×100%.
(§4) The intact culture medium was evaluated as a control. […]
All animal experiments were performed in compliance with the Guidelines for the Care and Use of Research Animals as established by the Stanford University Animal Studies Committee. Female athymic nude mice (nu/nu) from 4−6 weeks old were obtained from Charles River Laboratories (Boston, MA, USA) and kept under sterile conditions. 5 × 106 human lung adenocarcinoma

[2] = tested on: subcutaneous HCC827 tumor; experiment: In vivo and ex vivo fluorescence imaging of HCC827 tumor-bearing mice; parameters: species or system nude mice
Method: HCC827 cells suspended in 150 µL of PBS were inoculated subcutaneously in the right shoulder […]
When the tumors reached ~3 mm in diameter, the tumor-bearing mice were administered i.v. with 5BMF (dissolved in 150 µL PBS, with 2 µL DMSO) at 15 mg/Kg on days 1, 3, 5, 7, 9, 11, 13, 15, 17, 19, 21. Correspondingly, untreated tumor-bearing mice serving as controls were administered i.v. with 150 µL 1× PBS pH 7.4 (with 2 µL DMSO) on the same days as the treated mice. Ten mice were used for each group. Length and width of the elliptical tumors were measured by Vernier caliper after every intravenous injection. Modified ellipsoid formula ½ (Length × Width2) was used to calculate the tumor size. The tumor growth was calculated with the ratio of final volume (FV) minus initial volume (IV) to initial volume (IV).
In vivo fluorescent imaging was taken 40 minutes and 2 hours after the injection of 5BMF 15 mg/kg. IVIS spectrum instrument was used. The excitation wavelength was set at 450 nm.
Collection wavelength was set at 550 nm, using a 3s acquisition time. 4 mice for each group were used. Mice were sacrificed and the organs were harvest after each set of in vivo imaging.
Fluorescent images of the organs were taken under the same settings.
The tumor tissues and some important organs such as liver, kidney, lung, heart were isolated. After frozen, the specimens sectioned at 5-8 µm and processed for a standard hematoxylin-eosin (H&E) staining. Slides were viewed and photographed with the Nanozoomer Digital Pathology Image […]
The body weights of mice are presented as means ± standard deviation (SD) of n independent measurements. The tumor volumes are presented as means ± standard error of mean (SEM) of n independent measurements. Statistical analysis was performed using a Student’s t-test or Mann-Whitney U test. Statistical significance was assigned for P values <0.05.
Detail F16s Synthesis information

[3] = Relative fluorescence quantum yield; assay type: physicochemical; settings: EtOH, relative to rhodamine 6G, excited at 425 nm
Method: Quantum yield. The fluorescence quantum yields of F16s were determined according to the […]
Where Φ is the quantum yield, F is the integrated area under the corrected emission spectrum, and A is the absorbance at the excitation wavelength; the subscripts x and s refer to F16s and the standard, respectively. Rhodamine 6G (ΦF = 95%) in ethanol was used as the standard. All F16s and Rhodamine 6G were dissolved in ethanol in 5 different concentrations with the absorbance lower than 0.1 at 425nm. The corresponding 5 different fluorescences of F16s and Rhodamine 6G were excited at 425 nm and the emission spectra from 450 nm to 650 nm were obtained for the following integrated area measurement. All data were analyzed using Origin Pro 9.0 software (OriginLab, Northampton, Massachusetts, USA) to get the F16s final quantum yield. […]

[4] = tested on: HCC827 NSCLC cell line; experiment: Cytotoxicity assay, HCC827; assay type: cell-based; settings: Homo sapiens; HCC827 cells
Method: as §1, §2, §3, §4

[5] = tested on: H838 cells' mitochondria; experiment: Effect of membrane potential (high K+ medium, FCCP) on 5BMF accumulation; assay type: cell-based
Method: To verify that F16 derivatives preserve the same property, H838 cells were preincubated in high K^+ medium (137 mM) to depolarize the plasma membrane, then 5BMF (3 μM) was added and incubated for 30 min. […] As with other DLCs, the selectivity of F16s for mitochondria is driven by the negative transmembrane potential.[18]
Mitotracker® Red (Molecular Probes) and Hoechst (Thermo Scientific) were added to the medium to stain the mitochondria and nuclei, following the manufacturer’s procedures. Cells were photographed as previously described using a 63× oil or 20× objective lens.
The effect of membrane potential on 5BMF accumulation was performed through staining HCC827 cells in low K+ and high K+ buffer, instead of RPMI-1640 culture medium. Low K+ buffer contains 137 mM NaCl, 3.6 mM KCI, 0.5 mM MgCl2, 1.8 mM CaCl2 of RPMI-1640 medium (GIBCO). […]
Cytotoxicity assay. […] After incubating for 3 days, the viable cell numbers were checked and directly counted under microscopy (10X). A minimum of 1mm×1mm area was counted from each of at least three widely separated regions of cell culture. The cell proliferation rate was calculated by the following formula: cell proliferation rate (%) = (average cell number of sample wells / average cell number of control wells) ×100%.
as §4

[6] = Self-assembly into nanoparticles (TEM, DLS); assay type: physicochemical; settings: 1× pH 7.4 PBS, 5 mM to 0.125 mM
[7] = tested on: H2030 NSCLC cell line; experiment: Cytotoxicity assay, H2030; assay type: cell-based; settings: Homo sapiens, NCI-H2030; H2030 cells
Method: as §1, §2, §3, §4

[8] = tested on: bladder cancer T24 cell; experiment: Cytotoxicity assay (direct cell counting), T24; assay type: cell-based
Method: as §1, §2, §3, §4

Cc1cc(Br)cc2c(/C=C/c3cc[n+](C)cc3)c[nH]c12 [5BMF]
IC50 [1]: 360 nM
accumulation in tumor, kidney, bone, stomach, bowel, pancreas and skin ([2]; ex vivo imaging at 40 min and 2 h PI): accumulated more 5BMF compared with the liver, spleen, heart, lung, and brain
tumor/lung ratio ([2]; ex vivo imaging, 2 h PI, 15 mg/kg): ~7
tumor to background ratio ([2]; in vivo fluorescence, 2 h post IV injection, 15 mg/kg): ~2
Quantum Yield [3]: 19.7%
Quantum Yield ([3]; listed as 3): around 20%
IC50 [4]: 1990 nM
accumulation in mitochondria in high K+ medium versus low K+ medium ([5]; H838 cells, 3 μM, 30 min, high K+ 137 mM, low K+ 3.6 mM): much less 5BMF accumulation in mitochondria
mitochondrial staining after addition of FCCP ([5]; cells preloaded with 5BMF, FCCP 5 µM, 1 and 3 min): immediately decayed and diffused into the cytoplasm
size of self-assembled nanoparticles [6]: ~120 nm
IC50 [7]: 102 nM
selectivity indices ([8]; 3T3 versus T24 and H838): > 10
IC50 ([8]; Homo sapiens, T-24, 72 h, T24 cells, 3 days incubation, viable cells counted): 820 nM
